Like-named read-outs stand apart in the source and are kept apart here.
Tests used:
[1] = Phase 1 pharmacokinetic study, single oral 25 mg dose of d6-tetrabenazine or tetrabenazine (immediate release, powder in capsule), two-period crossover; assay type: in vivo, human; conditions: for AUCinf / AUClast / Cmax / Tmax / t1/2: plasma analyte, single oral 25 mg d6-tetrabenazine or tetrabenazine; for AUCinf / AUClast / Cmax / Tmax / t1/2 / AUCinf (AUClast presented for parent drug as AUCinf not calculable): fasted, mean; for AUCinf (AUClast presented for parent drug as AUCinf not calculable): parent drug in plasma, single oral 25 mg; for Ratio of LS Means, AUCinf / Ratio of LS Means, AUClast / Ratio of LS Means, Cmax / Ratio of LS Means, t1/2: d6-tetrabenazine 25 mg (test) to tetrabenazine 25 mg (reference), ANOVA
Description: A Phase 1 pharmacokinetic study was conducted in 24 healthy extensive and intermediate CYP2D6 metabolizer volunteers receiving oral 25 mg doses of d6-tetrabenazine or tetrabenazine to compare the relative bioavailability and pharmacokinetics of single oral doses of d6-tetrabenazine and its metabolites d6-α-HTBZ and d6-β-HTBZ with their non-deuterated equivalents (tetrabenazine, α-HTBZ and β-HTBZ) as well as the corresponding O-desmethyl metabolites of α-HTBZ and β-HTBZ. Subjects received a single oral dose of 25 mg of d6-tetrabenazine or tetrabenazine after an overnight fast, as a powder in capsule, in Period 1 and following washout of at least 7 days. Patients were crossed over to receive the other treatment in Period 2. In each period, plasma samples were collected over 72 hours post-dose.
Pharmacokinetic results are shown below in Table 37 and FIG. 3, results are presented as Mean (% CV) for Cmax, AUC and t1/2 (AUClast presented for parent drug as AUCinf not calculable), and as Mean (range) for Tmax. The increased exposure was principally attributable to increases in half-life and was associated with proportional reductions in O-desmethyl metabolites of HTBZ.
The effect of deuteration on key pharmacokinetic parameters was evaluated by comparing d6-tetrabenazine (test) to tetrabenazine (reference) using an analysis of variance (ANOVA) model for a two-period crossover including factors Sequence, Treatment, Period and Subject. Pharmacokinetic parameters were log-transformed before analysis.

[2] = human plasma; cited from earlier work
[3] = co-administration of tetrabenazine and paroxetine, compared to tetrabenazine alone; cited from earlier work
[4] = assay type: in vitro ADME
Description: d6-Tetrabenazine has been designed with the intent to improve the pharmacokinetic profile of active metabolites α-HTBZ and β-HTBZ. The CYP mediated cleavage of the carbon-deuterium bonds within the trideuterated methyl groups (CD3) of d6-tetrabenazine is slower than the cleavage of the carbon-hydrogen bonds in the methyl groups (CH3) of tetrabenazine, an effect that selectively attenuated O-demethylation of deuterated α-HTBZ and β-HTBZ (d6-α-HTBZ and d6-β-HTBZ) in in vitro studies.
The spectrum of metabolites produced by d6-tetrabenazine is expected to be similar to that in patients with reduced CYP2D6 metabolism who receive tetrabenazine. This is based on in vitro metabolism studies and a drug interaction study of tetrabenazine and paroxetine. In the drug interaction study, co-administration of tetrabenazine and paroxetine increased systemic exposure to the α-HTBZ and β-HTBZ metabolites by 3- to 9-fold, respectively, compared to tetrabenazine alone (Xenazine® U.S. prescribing information). […] Administration of d6-tetrabenazine to healthy volunteers led to an approximate 2-fold increase in systemic exposure to α-HTBZ and β-HTBZ and proportional reductions in O-desmethyl metabolites compared to tetrabenazine. […]

`COc1cc2c(cc1O)CCN1C[C@@H](CC(C)C)[C@H](O)C[C@H]21` [9-O-desmethyl-α-HTBZ] showed an AUCinf [1] of 49.9 ng·h/mL, an AUClast [1] of 42.5 ng·h/mL and a Cmax [1] of 5.05 ng/mL. For the same compound, the Tmax [1] was 2.00 h and the t1/2 [1] was 6.95 h.

With `[2H]C([2H])([2H])Oc1cc2c(cc1OC([2H])([2H])[2H])[C@@H]1CC(=O)[C@@H](CC(C)C)CN1CC2` (racemic) [d6-Tetrabenazine, (3R,11bR)-1,3,4,6,7,11b-hexahydro-9,10-di(methoxy-d3)-3-(2-methylpropyl)-2H-benzo[a]quinolizin-2-one and (3S,11bS)-1,3,4,6,7,11b-hexahydro-9,10-di(methoxy-d3)-3-(2-methylpropyl)-2H-benzo[a]quinolizin-2-one] the “systemic exposure to total (α+β)-HTBZ” value ([1]; compared to exposure following tetrabenazine administration) was “more than doubling”, the Cmax ([1]; human, read-out: Cmax) was 0.327 ng/mL and the “AUCinf (AUClast presented for parent drug as AUCinf not calculable)” value [1] was 0.30 ng·h/mL.

With alpha-dihydrotetrabenazine [α-HTBZ] the “Ratio of LS Means, AUCinf” value [1] was 213.6%, the “Ratio of LS Means, AUClast” value [1] was 214.8% and the “Ratio of LS Means, Cmax” value [1] was 113.7%. For the same compound, the “Ratio of LS Means, t1/2” value [1] was 174.7%, the AUCinf [1] was 189 ng·h/mL and the Cmax [1] was 41.2 ng/mL. For the same compound, the Tmax [1] was 1.00 h, the t1/2 [1] was 5.47 h and the half-lives [2] was 7 h. The “increase in systemic exposure” value [3] was 3 fold.

Compound `[2H]C([2H])([2H])Oc1cc2c(cc1O)CCN1C[C@@H](CC(C)C)[C@H](O)C[C@H]21` [d3-9-O-desmethyl-α-HTBZ] has an AUClast [1] of 21.0 ng·h/mL, a Cmax [1] of 2.15 ng/mL and a Tmax [1] of 3.02 h.

In the case of `[2H]C([2H])([2H])Oc1cc2c(cc1OC([2H])([2H])[2H])[C@@H]1C[C@@H](O)[C@@H](CC(C)C)CN1CC2` [d6-β-HTBZ, deuterated beta-dihydrotetrabenazine], the AUCinf [1] is reported as 171 ng·h/mL, the Cmax [1] is reported as 29.6 ng/mL and the Tmax [1] is reported as 1.50 h. For the same compound, the t1/2 [1] was 5.00 h and the “less of the O-desmethyl metabolites produced” value [4] was 69-87%.

With `COc1cc2c(cc1OC)[C@@H]1CC(=O)[C@@H](CC(C)C)CN1CC2` (racemic) [Tetrabenazine, (3R,11bR)-1,3,4,6,7,11b-Hexahydro-9,10-dimethoxy-3-(2-methylpropyl)-2H-benzo[a]quinolizin-2-one, and (3S,11bS)-1,3,4,6,7,11b-hexahydro-9,10-dimethoxy-3-(2-methylpropyl)-2H-benzo[a]quinolizin-2-one, reference compound] the Cmax ([1]; human, read-out: Cmax) was 0.314 ng/mL and the “AUCinf (AUClast presented for parent drug as AUCinf not calculable)” value [1] was 0.26 ng·h/mL.

Work on `[2H]C([2H])([2H])Oc1cc2c(cc1O)CCN1C[C@@H](CC(C)C)[C@@H](O)C[C@H]21` [d3-9-O-desmethy1-β-HTBZ] yielded an AUCinf [1] of 114 ng·h/mL, an AUClast [1] of 92.4 ng·h/mL and a Cmax [1] of 6.29 ng/mL. The Tmax [1] was 1.75 h and the t1/2 [1] was 16.9 h.

With `COc1cc2c(cc1O)C1CC(O)C(CC(C)C)CN1CC2` (stereo not drawn) [10-ODM-β-HTBZ] the AUClast [1] was 3.0 ng·h/mL, the Cmax [1] was 1.63 ng/mL and the Tmax [1] was 1.25 h.

For `COc1cc2c(cc1O)CCN1C[C@@H](CC(C)C)[C@@H](O)C[C@H]21` [9-O-desmethyl-β-HTBZ], the AUCinf [1] was 220 ng·h/mL, the AUClast [1] was 205 ng·h/mL and the Cmax [1] was 15.7 ng/mL. For the same compound, the Tmax [1] was 1.75 h and the t1/2 [1] was 16.2 h.

`[2H]C([2H])([2H])Oc1cc2c(cc1O)C1CC(O)C(CC(C)C)CN1CC2` (stereo not drawn) [d3-10-ODM-β-HTBZ] showed an AUClast [1] of 0.7 ng·h/mL, a Cmax [1] of 0.59 ng/mL and a Tmax [1] of 1.50 h.

`[2H]C([2H])([2H])Oc1cc2c(cc1OC([2H])([2H])[2H])[C@H]1C[C@@H](O)[C@H](CC(C)C)CN1CC2` [d6-α-HTBZ, deuterated alpha-dihydrotetrabenazine] showed an AUCinf [1] of 373 ng·h/mL, a Cmax [1] of 46.1 ng/mL and a Tmax [1] of 1.5 h. The t1/2 [1] was 8.97 h and the “less of the O-desmethyl metabolites produced” value [4] was 69-87%.

In the case of `COc1cc2c(cc1OC)[C@H]1C[C@H](O)[C@H](CC(C)C)CN1CC2` [β-HTBZ, beta-dihydrotetrabenazine], the “Ratio of LS Means, AUCinf” value [1] is reported as 235.8%, the “Ratio of LS Means, AUClast” value [1] is reported as 240.1% and the “Ratio of LS Means, Cmax” value [1] is reported as 145.8%. For the same compound, the “Ratio of LS Means, t1/2” value [1] was 153.0%, the AUCinf [1] was 74.0 ng·h/mL and the Cmax [1] was 20.5 ng/mL. For the same compound, the Tmax [1] was 1.00 h, the t1/2 [1] was 2.95 h and the half-lives [2] was 5 h. For the same compound, the “increase in systemic exposure” value [3] was 9 fold.

Source: patent US11666566B2, “Formulations and pharmacokinetics of deuterated benzoquinoline inhibitors of vesicular monoamine transporter 2” (AUSPEX PHARMACEUTICALS, INC., priority 2012, dated 2023)
